Assay results published in ChEMBL document CHEMBL2380284, “X-ray crystal structures of the Escherichia coli RNA polymerase in complex with benzoxazinorifamycins” (J Med Chem, 2013).

Legend:
[1] = Inhibition of rifamycin-resistant Mycobacterium tuberculosis RNA polymerase D435V mutant after 10 mins by rolling circle transcription assay in presence of DNA nanocircle template NC45
[2] = Inhibition of rifamycin-resistant Mycobacterium tuberculosis RNA polymerase S450L mutant after 10 mins by rolling circle transcription assay in presence of DNA nanocircle template NC45
[3] = Inhibition of rifamycin-resistant Mycobacterium tuberculosis RNA polymerase H445Y mutant after 10 mins by rolling circle transcription assay in presence of DNA nanocircle template NC45

**Q.** Which results are given for `CO[C@H]1/C=C/O[C@@]2(C)Oc3c(C)c(O)c4c(O)c(c(/C=N/N5CCN(C)CC5)c(O)c4c3C2=O)NC(=O)/C(C)=C\C=C\[C@H](C)[C@H](O)[C@@H](C)[C@@H](O)[C@@H](C)[C@H](OC(C)=O)[C@@H]1C` [RIFAMPIN]?
**A.** IC50 [1]: 465 µM; IC50 [2]: 109 µM; IC50 [3]: 610 µM
